Tested on: C57BL/KsJdb/db mice
Experiment: Hypoglycemic effect of single or combined administration in db/db mice (plasma glucose on day 14)
Type: in vivo, mouse
Conditions: for Decreasing rate: plasma glucose decrease vs control group mean
Protocol: As test animals, C57BL/KsJdb/db mice were used, which were created in Jackson Laboratory (USA) and known as an obesity, hyperlipemia, hyperinsulinemia, and insulin-resistant model (Journal of Clinical Investigation, 85, pp 962-967, 1990). Blood was collected from the orbital venous plexus of each 7-week-old db/db mouse using a heparin-treated capillary tube, and centrifugation was performed to collect plasma. Thereafter, the plasma glucose concentration (Glucose CII-Test Wako (Wako Pure Chemical Industries, Ltd.)), the insulin concentration (Lebis Insulin Kit: for mouse-T (SHIBAYAGI)), and the triglyceride concentration (Triglyceride E-Test Wako (Wako Pure Chemical Industries, Ltd.)) were measured for classification. The classification was performed so that distribution of each measurement item is uniform for each group by block allocation based on many variables in which the plasma glucose concentration is most emphasized using the measured values of the plasma glucose concentration, the body weight, the insulin concentration, and the triglyceride concentration. […] Two hours after the administration of the medicines on the 14th day from the beginning day of the administration, blood was collected from the orbital venous plexus, and the plasma thereof was collected to measure the plasma glucose concentration. […] Each plasma glucose concentration is expressed as mean±standard deviation for 6 mice of each group. Each decreasing rate is calculated from ((mean of plasma glucose concentration of control group)−(mean of plasma glucose concentration of each group))/(mean of plasma glucose concentration of control group)×100, while each relative index is calculated from (mean of plasma glucose concentration of each group)/(mean of plasma glucose concentration of control group).

With CN(C)C(=N)NC(=N)N.Cl [Metformin, 1,1-Dimethylbiguanide hydrochloride, reference compound] as the compound, how does the Decreasing rate (300 mg/kg oral once a day for 14 days) read?
The Decreasing rate was 3%.

Which results are given for O=C([O-])C(Cl)(Cl)CCCCCCCCCCc1ccc(Cl)cc1.[Na+] [sodium 2,2-dichloro-12-(4-chlorophenyl)-dodecanoate]?
Relative index (3 mg/kg oral once a day for 14 days, mean plasma glucose of group / control group): 0.89; Plasma glucose concentration (3 mg/kg oral once a day for 14 days, plasma 2 h after dosing on day 14, mean ± SD, 6 mice): 241 ± 116 mg/dL; Decreasing rate (3 mg/kg oral once a day for 14 days): 11%; Decreasing effect for the plasma glucose concentration (in words) (single administration 3 mg/kg, 14 days, compared with normal db/+m mouse level (187±16)): insufficient
